Test results published in publication PMC7011920, “Synthesis and biological evaluation of stilbene derivatives coupled to NO donors as potential antidiabetic agents” (Journal of Enzyme Inhibition and Medicinal Chemistry, 2018).

Test system: STZ-induced diabetic mice
Experiment: Acute hypoglycaemic assay in STZ-diabetic mice
Assay type: in vivo
Conditions: for Blood glucose concentration: mean ± SEM, six mice
Method: The antidiabetic activity was determined by using a standard method. […] Especially, compound 7c caused significant decreases in blood glucose levels when compared with vehicle-treated groups (p < .05). […] In STZ-diabetic animals, the hypoglycaemic effect of pterostilbene (40 mg/kg of bw) was larger than 50% since 5 h and persisted throughout the experiment. Target compound 7c (40 mg/kg of bw) caused significant decreases in blood glucose levels compared with pterostilbene (40 mg/kg of bw).
Type II DM was induced in mice by a single intraperitoneal injection of freshly prepared STZ (Sigma Aldrich, St. Louis, MO) dissolved in 0.1 M citrate buffer, pH 4.5, in a […] of 120 mg/kg of bw. After seven days of STZ administration, blood glucose levels of each mouse were determined. Mice with blood glucose levels higher than 11 mM were considered diabetic and were included in the study.
STZ-induced diabetic mice and normal mice were placed in single cages with wire-net floors and deprived of food for 12 h before experimentation but allowed free access to tap water throughout. The compounds (at the doses of 10, 40, and 100 mg/kg of bw) were suspended in 0.05% Tween-80 in saline solution. Glibenclamide (10 mg/kg of bw) was suspended in the same vehicle. The target compounds were freshly prepared immediately before experimentation and administered by the intragastrical route at the doses of 10 ml/kg of bw. Control mice received only the vehicle (0.05% Tween-80 in saline solution) by the same route. Blood glucose levels were measured at 0, 1.5, 3, 5, 7, and 9 h after drugs administration.

COc1cc(/C=C/c2ccc(OCCCCCCO[N+](=O)[O-])cc2)cc(OC)c1 [3c]
Blood glucose concentration (dose 10 mg/kg per os, 0 h): 22.6 ± 7.0 mM | Blood glucose concentration (dose 10 mg/kg per os, 1.5 h): 18.1 ± 7.3 mM | % Variation of glycaemia (dose 10 mg/kg per os, 1.5 h vs 0 h): –20.13% | Blood glucose concentration (dose 10 mg/kg per os, 3 h): 17.0 ± 6.6 mM | % Variation of glycaemia (dose 10 mg/kg per os, 3 h vs 0 h): –24.78% | Blood glucose concentration (dose 10 mg/kg per os, 5 h): 16.8 ± 6.1 mM | % Variation of glycaemia (dose 10 mg/kg per os, 5 h vs 0 h): –25.66% | Blood glucose concentration (dose 10 mg/kg per os, 7 h): 15.7 ± 4.3 mM | % Variation of glycaemia (dose 10 mg/kg per os, 7 h vs 0 h): –30.53% | Blood glucose concentration (dose 10 mg/kg per os, 9 h): 13.2 ± 3.5 mM | % Variation of glycaemia (dose 10 mg/kg per os, 9 h vs 0 h): –41.59% | Blood glucose concentration (dose 40 mg/kg per os, 0 h): 21.7 ± 5.7 mM | Blood glucose concentration (dose 40 mg/kg per os, 1.5 h): 17.2 ± 5.6 mM | % Variation of glycaemia (dose 40 mg/kg per os, 1.5 h vs 0 h): –20.74% | Blood glucose concentration (dose 40 mg/kg per os, 3 h): 16.3 ± 7.5 mM | % Variation of glycaemia (dose 40 mg/kg per os, 3 h vs 0 h): –25.04% | Blood glucose concentration (dose 40 mg/kg per os, 5 h): 15.7 ± 6.4 mM | % Variation of glycaemia (dose 40 mg/kg per os, 5 h vs 0 h): –27.57% | Blood glucose concentration (dose 40 mg/kg per os, 7 h): 14.3 ± 9.6 mM | % Variation of glycaemia (dose 40 mg/kg per os, 7 h vs 0 h): –34.02% | Blood glucose concentration (dose 40 mg/kg per os, 9 h): 9.9 ± 4.6 mM | % Variation of glycaemia (dose 40 mg/kg per os, 9 h vs 0 h): –54.30% | Blood glucose concentration (dose 100 mg/kg per os, 0 h): 18.6 ± 1.9 mM | Blood glucose concentration (dose 100 mg/kg per os, 1.5 h): 15.9 ± 3.6 mM | % Variation of glycaemia (dose 100 mg/kg per os, 1.5 h vs 0 h): –14.34% | Blood glucose concentration (dose 100 mg/kg per os, 3 h): 15.2 ± 3.0 mM | % Variation of glycaemia (dose 100 mg/kg per os, 3 h vs 0 h): –18.28% | Blood glucose concentration (dose 100 mg/kg per os, 5 h): 15.1 ± 3.7 mM | % Variation of glycaemia (dose 100 mg/kg per os, 5 h vs 0 h): –19.00% | Blood glucose concentration (dose 100 mg/kg per os, 7 h): 13.4 ± 4.7 mM | % Variation of glycaemia (dose 100 mg/kg per os, 7 h vs 0 h): –28.23% | Blood glucose concentration (dose 100 mg/kg per os, 9 h): 11.1 ± 3.0 mM | % Variation of glycaemia (dose 100 mg/kg per os, 9 h vs 0 h): –40.32%
